Results as given in patent US20050245577A1, “Drug for kidney failure containing oxaluric acid derivative” (priority 2002, published 2005).

System: SD-strain rats
Assay: Single dose toxicity test
Assay type: in vivo
Conditions: intravenous single dose 75 to 600 mg/kg, even at 600 mg/kg, 5 males and 5 females
Procedure: 5-Methyloxaluric acid was intravenously administered to SD-strain rats (6 weeks age, 5 males and 5 females) at the dose of 75 to 600 mg/kg.

SMILES: CNC(=O)NC(=O)C(=O)O [5-Methyloxaluric acid, 5-methyloxaluric acid]
- death: no death
